The values below are quoted from earlier work in patent US20080145318A1, “ATOMOXETINE FORMULATIONS AND ASSOCIATED METHODS” (priority 2006, published 2008).

The structures appear in SMILES notation.

Data set [1] relates to other receptor systems. The conditions noted are these: in words.
Data set [2] concerns the target norepinephrine reuptake transporter (Homo sapiens, UniProt P23975). The following applies: relative to atomoxetine, in words.
In data set [3] the target is serotonin reuptake (Homo sapiens, UniProt P31645). The following applies: in words.
serotonin reuptake, sequence (P31645 whole entry): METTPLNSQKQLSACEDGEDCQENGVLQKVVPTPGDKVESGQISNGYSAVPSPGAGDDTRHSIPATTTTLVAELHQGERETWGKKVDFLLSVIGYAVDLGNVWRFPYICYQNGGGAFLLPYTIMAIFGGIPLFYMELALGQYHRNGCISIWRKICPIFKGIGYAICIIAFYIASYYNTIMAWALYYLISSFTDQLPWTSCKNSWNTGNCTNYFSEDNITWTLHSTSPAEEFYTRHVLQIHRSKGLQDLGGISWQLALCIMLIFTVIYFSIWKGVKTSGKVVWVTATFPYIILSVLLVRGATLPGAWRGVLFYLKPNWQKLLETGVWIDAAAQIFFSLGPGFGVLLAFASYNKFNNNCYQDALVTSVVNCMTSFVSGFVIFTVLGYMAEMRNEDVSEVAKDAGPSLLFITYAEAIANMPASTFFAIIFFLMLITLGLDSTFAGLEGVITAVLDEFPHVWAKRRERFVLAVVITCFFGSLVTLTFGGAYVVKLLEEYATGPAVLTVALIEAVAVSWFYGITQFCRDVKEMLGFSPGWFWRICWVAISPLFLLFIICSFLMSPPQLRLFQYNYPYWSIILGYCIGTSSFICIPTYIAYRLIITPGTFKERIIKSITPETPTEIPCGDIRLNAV

norepinephrine reuptake transporter, sequence (P23975 whole entry): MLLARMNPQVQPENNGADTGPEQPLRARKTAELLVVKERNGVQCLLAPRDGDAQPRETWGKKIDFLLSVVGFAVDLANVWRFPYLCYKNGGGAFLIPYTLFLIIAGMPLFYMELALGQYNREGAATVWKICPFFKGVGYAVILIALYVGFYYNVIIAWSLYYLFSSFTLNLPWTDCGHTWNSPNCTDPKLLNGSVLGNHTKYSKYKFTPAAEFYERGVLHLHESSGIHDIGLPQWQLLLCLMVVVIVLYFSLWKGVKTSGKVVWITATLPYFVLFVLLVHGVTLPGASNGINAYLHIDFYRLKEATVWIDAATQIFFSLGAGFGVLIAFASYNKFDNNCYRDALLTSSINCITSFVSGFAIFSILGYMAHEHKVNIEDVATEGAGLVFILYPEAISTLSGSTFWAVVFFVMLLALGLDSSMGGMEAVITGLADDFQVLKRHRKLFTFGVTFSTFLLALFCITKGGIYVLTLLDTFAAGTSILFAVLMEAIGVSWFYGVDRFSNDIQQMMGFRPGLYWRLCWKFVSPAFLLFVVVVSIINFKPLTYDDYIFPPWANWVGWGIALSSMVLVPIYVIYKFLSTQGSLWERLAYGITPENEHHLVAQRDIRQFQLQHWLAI

As to `Cc1cc(O)ccc1OC(CCN)c1ccccc1` (centres unmarked) [4H-NDA, N-desmethyl-4-hydroxyatomoxetine], the “affinity to other receptor systems” value in data set [1] is reported as “little affinity”. Besides, in data set [2], the “inhibitory activity to the norepinephrine reuptake transporter compared to atomoxetine” value is “less active”.
Take `CNCCC(Oc1ccc(O)cc1C)c1ccccc1` (centres unmarked) [4HA, 4-hydroxyatomoxetine]: the “serotonin reuptake inhibitor activity” value in data set [3] is listed as “pharmacologically active”. The “affinity to other receptor systems” value in data set [1] is given as “little affinity”.
Take `CNCCC(Oc1ccccc1C)c1ccccc1` (single isomer, unassigned; (-)) [atomoxetine, (−)-N-methyl-3-phenyl-3-(o-tolyloxy)-propylamine]: for the setting “individuals having normal activity in the CYP2D6 pathway”, the plasma half-life entry is given as “about 5 hours”. Also, the half-life entry (individuals having reduced activity in the CYP2D6 pathway (poor metabolizers)) is listed as “about 24 hours”.
`Cc1ccccc1OC(CCN)c1ccccc1` (centres unmarked) [NDA, N-desmethylatomoxetine]: the “affinity to other receptor systems” value in data set [1] was “little affinity”. Further, in data set [2], the “inhibitory activity to the norepinephrine reuptake transporter compared to atomoxetine” value is on record as “less active”.
